Measurements as given in patent publication US11970474B2, “Substituted benzodiazoles and use thereof in therapy” (THOMAS HELLEDAYS STIFTELSE FÖR MEDICINSK FORSKNING, priority 2018, dated 2024).

Tests used:
Assay in all cases: Cell viability assay (resazurin)
Assay type in all cases: cell-based
[1] = test system: CCD841; settings: CCD-841, 120 h, Normal, fetal epithelial colon, five day incubation
Experimental: (§1) A dilution series of compound or vehicle are transferred to 96-well plates. Cells are seeded into the plate (500-10,000 cells/well) in suitable media and incubated for five days in 5% CO2 at 37° C. Thereafter, resazurin (diluted in suitable medium or PBS) are added to a final concentration 10 μg/ml resazurin at 37° C. for 2-4 hours before measuring the fluorescence (Ex544/Em590), essentially as described (Riss, Terry L. et al., “Cell Viability Assays.” In Assay Guidance Manual, ed. G. Sitta Sittampalam, et al. Bethesda (Md.): Eli Lilly & Company and the National Center for Advancing Translational Sciences (2004) http://www.ncbi.nlm.nih.gov/books/NBK144065/).
(§2) The compounds to be tested are nano-dispensed in duplicate in 11 concentrations, directly in 384-well cell plates, with a final DMSO concentration<1%. Cells are seeded in cell plates, pre-dispensed with compounds (200-2500 cells/well in 50 μl). After three or five days culture in 5% CO2, 37° C., resazurin diluted in PBS is added, 10 μl/well, to a final concentration of 10 μg/ml and cells are incubated 2-4 hours before measuring fluorescence (Ex544/Em590), as described (ibid.). Results obtained for selected example compounds described herein on cancer- and non-transformed cell lines are provided in the table below (Table 3) and summarized in FIG. 1. Where indicated, combination indexes was measured with CompuSyn software (www.compusyn.com) by the method of Chou-Talalay (Chou, Ting-Chao., Cancer Research, 70(2), 440-46 (2010)).

[2] = test system: M059J; settings: Homo sapiens, 120 h, Cancer, Malignant Glioblastoma, five day incubation
Experimental: as §1, §2

[3] = test system: Raji; settings: Homo sapiens, 120 h, Cancer, Burkitt's Lymphoma, five day incubation
Experimental: as §1, §2

[4] = test system: KG1a; settings: Homo sapiens, KG-1a, 120 h, Cancer, Acute Myelogenous Leukemia, five day incubation
Experimental: as §1, §2

[5] = test system: Reh; settings: Homo sapiens, 120 h, Cancer, Acute Lymphocytic Leukemia, five day incubation
Experimental: as §1, §2

[6] = test system: U2OS; settings: Homo sapiens, 120 h, Cancer, Osteosarcoma, five day incubation
Experimental: as §1, §2

[7] = test system: A3; settings: 120 h, Cancer, Acute lymphoblastic leukemia, five day incubation
Experimental: as §1, §2

[8] = test system: HL-60; settings: Homo sapiens, 120 h, Cancer, Acute Promyelocytic Leukemia, five day incubation
Experimental: as §1, §2

[9] = test system: M059K; settings: 120 h, Cancer, Malignant Glioblastoma, five day incubation
Experimental: as §1, §2

[10] = test system: RFX393; settings: 120 h, Cancer, Renal cancer cell lines, five day incubation
Experimental: as §1, §2

[11] = test system: A549; settings: Homo sapiens, 120 h, Cancer, Lung carcinoma, five day incubation
Experimental: as §1, §2

[12] = test system: Rec1; settings: Homo sapiens, 120 h, Cancer, Mantle Cell Lymphoma, five day incubation
Experimental: as §1, §2

[13] = test system: LCL#2; settings: 120 h, Normal, Epstein-Barr-virus-transformed lymphoblastoid cell lines, five day incubation
Experimental: as §1, §2

[14] = test system: Jurkat; settings: Homo sapiens, 120 h, Cancer, Acute lymphoblastic leukemia, five day incubation
Experimental: as §1, §2

[15] = test system: SaOS2; settings: Homo sapiens, SAOS-2, 120 h, Cancer, Osteosarcoma, five day incubation
Experimental: as §1, §2

[16] = test system: A498; settings: Homo sapiens, 120 h, Cancer, Renal carcinoma, five day incubation
Experimental: as §1, §2

[17] = test system: DU145; settings: Homo sapiens, DU-145, 120 h, Cancer, Prostate carcinoma, five day incubation
Experimental: as §1, §2

[18] = test system: PL-21; settings: 120 h, Cancer, acute myeloid leukemia, five day incubation
Experimental: as §1, §2

[19] = test system: VH10; settings: 120 h, Normal, fibroblast, five day incubation
Experimental: as §1, §2

[20] = test system: UO31; settings: Homo sapiens, UO-31, 120 h, Cancer, Renal carcinoma, five day incubation
Experimental: as §1, §2

[21] = test system: BJ Tert; settings: 120 h, Normal, immortalized fibroblast, five day incubation
Experimental: as §1, §2

[22] = test system: BJ Ras; settings: 120 h, Cancer, Transformed fibroblast, five day incubation
Experimental: as §1, §2

[23] = test system: Daudi; settings: Homo sapiens, 120 h, Cancer, Burkitt's Lymphoma, five day incubation
Experimental: as §1, §2

[24] = test system: LCL#1; settings: 120 h, Normal, Epstein-Barr-virus-transformed lymphoblastoid cell lines, five day incubation
Experimental: as §1, §2

[25] = test system: MRC5; settings: Homo sapiens, 120 h, Normal, fetal lung fibroblast, five day incubation
Experimental: as §1, §2

[26] = test system: T98G; settings: Homo sapiens, 120 h, Cancer, Glioblastoma Multiforme, five day incubation
Experimental: as §1, §2

[27] = test system: CCRF-CEM; settings: Homo sapiens, 120 h, Cancer, Acute Lymphoblastic Leukemia, five day incubation
Experimental: as §1, §2

[28] = test system: HCT116 + Chr3; settings: Homo sapiens, HCT-116, 120 h, Cancer, Colorectal Carcinoma, five day incubation
Experimental: as §1, §2

[29] = test system: MV4-11; settings: Homo sapiens, 120 h, Cancer, acute monocytic leukemia, five day incubation
Experimental: as §1, §2

[30] = test system: H460; settings: Homo sapiens, NCI-H460, 120 h, Cancer, large cell lung carcinoma, five day incubation
Experimental: as §1, §2

[31] = test system: HT-29; settings: Homo sapiens, 120 h, Cancer, Colorectal Adenocarcinoma, five day incubation
Experimental: as §1, §2

[32] = test system: HCT116; settings: Homo sapiens, HCT-116, 120 h, Cancer, Colorectal Carcinoma, five day incubation
Experimental: as §1, §2

Row | EC50 [3] | EC50 [6] | EC50 [8] | EC50 [11] | EC50 [14] | EC50 [17] | SMILES | EC50 [1] | EC50 [2] | EC50 [4] | EC50 [5] | EC50 [7] | EC50 [9] | EC50 [10] | EC50 [12] | EC50 [13] | EC50 [15] | EC50 [16] | EC50 [18] | EC50 [19] | EC50 [20] | further results
1 | 20 µM | 16 µM | 14 µM | 11 µM | 14 µM | 11 µM | O=C(Nc1ccc(Cl)c(Cl)c1)N1CCC(n2c(=O)[nH]c3c(-c4ccc(CO)nc4)cccc32)CC1 [Example 28, N-(3,4-dichlorophenyl)-4-{4-[6-(hydroxymethyl)pyridin-3-yl]-2-oxo-2,3-dihydro-1H-1,3-benzodiazol-1-yl}piperidine-1-carboxamide] | 40 µM | 21 µM | 18 µM | 15 µM | 7.9 µM | 19 µM | 14 µM | 13 µM | 41 µM | 16 µM | 21 µM | 10 µM | 21 µM | 7.1 µM | EC50 [21]: 24 µM; EC50 [22]: 15 µM; EC50 [23]: 10 µM; EC50 [24]: 34 µM; EC50 [25]: 21 µM; EC50 [26]: 19 µM; EC50 [27]: 11 µM; EC50 [28]: 17 µM; EC50 [29]: 6.5 µM; EC50 [30]: 14 µM; EC50 [31]: 23 µM; EC50 [32]: 15 µM
2 | 23 µM | 25 µM | 24 µM | 8.5 µM | 15 µM | 3.1 µM | Cc1cc(NC(=O)N2CCC(n3c(=O)[nH]c4c(Br)cccc43)CC2)ccc1I [Example 50, 4-(4-Bromo-2-oxo-2,3-dihydro-1H-1,3-benzodiazol-1-yl)-N-(4-iodo-3-methylphenyl)piperidine-1-carboxamide] | 54 µM | 29 µM | 19 µM | 17 µM | 9.8 µM | 27 µM | 12 µM | 15 µM | 32 µM | 20 µM | 35 µM | 18 µM | 48 µM | 3.2 µM | EC50 [21]: 31 µM; EC50 [22]: 14 µM; EC50 [23]: 12 µM; EC50 [24]: 40 µM; EC50 [25]: 47 µM; EC50 [26]: 17 µM; EC50 [27]: 7.9 µM; EC50 [28]: 20 µM; EC50 [29]: 9.6 µM; EC50 [30]: 17 µM; EC50 [31]: 22 µM; EC50 [32]: 29 µM

Row | SMILES | EC50 [3] | EC50 [6] | EC50 [8] | EC50 [11] | EC50 [14] | EC50 [17] | EC50 [1] | EC50 [2] | EC50 [4] | EC50 [5] | EC50 [7] | EC50 [9] | EC50 [10] | EC50 [12] | EC50 [13] | EC50 [15] | EC50 [16] | EC50 [18] | EC50 [19] | EC50 [20] | further results
3 | O=C(Nc1ccc(I)cc1)N1CCC(n2c(=O)[nH]c3c(Br)cccc32)CC1 [Example 13, 4-(4-Bromo-2-oxo-2,3-dihydro-1H-1,3-benzodiazol-1-yl)-N-(4-iodophenyl)piperidine-1-carboxamide] | 25 µM | 20 µM | 22 µM | 12 µM | 13 µM | 13 µM | 43 µM | 26 µM | 16 µM | 19 µM | 11 µM | 20 µM | 20 µM | 14 µM | 25 µM | 21 µM | 29 µM | 15 µM | 32 µM | 2.9 µM | EC50 [21]: 34 µM; EC50 [22]: 4.8 µM; EC50 [23]: 13 µM; EC50 [24]: 33 µM; EC50 [25]: 75 µM; EC50 [26]: 14 µM; EC50 [27]: 15 µM; EC50 [28]: 21 µM; EC50 [29]: 9.4 µM; EC50 [30]: 10 µM; EC50 [31]: 24 µM; EC50 [32]: 18 µM
